Reference: patent US20250090540A1, “PI3K-ALPHA INHIBITORS AND METHODS OF USE THEREOF” (Relay Therapeutics, Inc., priority 2021, published 2025)

Each compound was assayed against H1047R PIK3CA enzyme (Homo sapiens, UniProt P42336, H1047R) (assay: ADP-Glo Biochemical PIK3CA Kinase Assay).
Protocol: Compounds to be assayed were plated in 16 doses of 1:2 serial dilutions (20 nL volume each well) on a 1536-well plate, and the plate warmed to room temperature. PIK3CA enzyme (e.g. H1047R, E542K, E545K, or wild-type) (1 μL of 2 nM solution in Enzyme Assay Buffer (comprising 50 mM HEPES pH 7.4, 50 mM NaCl, 6 mM MgCl2, 5 mM DTT and 0.03% CHAPS)) was added and shaken for 10 seconds and preincubated for 30 minutes. To the well was added 1 μL of 200 μM ATP and 20 μM of diC8-PIP2 in Substrate Assay Buffer (50 mM HEPES pH7.4, 50 mM NaCl, 5 mM DTT and 0.03% CHAPS) to start the reaction, and the plate was shaken for 10 seconds, then spun briefly at 1500 rpm, and then incubated for 60 minutes at room temperature. The reaction was stopped by adding 2 μL of ADP-Glo reagent (Promega), and spinning briefly at 1500 rpm, and then incubating for 40 minutes. ADP-Glo Detection reagent (Promega) was added and the plate spun briefly at 1500 rpm, then incubated for 30 minutes.

Chain of H1047R PIK3CA enzyme (P42336 whole entry H1047R): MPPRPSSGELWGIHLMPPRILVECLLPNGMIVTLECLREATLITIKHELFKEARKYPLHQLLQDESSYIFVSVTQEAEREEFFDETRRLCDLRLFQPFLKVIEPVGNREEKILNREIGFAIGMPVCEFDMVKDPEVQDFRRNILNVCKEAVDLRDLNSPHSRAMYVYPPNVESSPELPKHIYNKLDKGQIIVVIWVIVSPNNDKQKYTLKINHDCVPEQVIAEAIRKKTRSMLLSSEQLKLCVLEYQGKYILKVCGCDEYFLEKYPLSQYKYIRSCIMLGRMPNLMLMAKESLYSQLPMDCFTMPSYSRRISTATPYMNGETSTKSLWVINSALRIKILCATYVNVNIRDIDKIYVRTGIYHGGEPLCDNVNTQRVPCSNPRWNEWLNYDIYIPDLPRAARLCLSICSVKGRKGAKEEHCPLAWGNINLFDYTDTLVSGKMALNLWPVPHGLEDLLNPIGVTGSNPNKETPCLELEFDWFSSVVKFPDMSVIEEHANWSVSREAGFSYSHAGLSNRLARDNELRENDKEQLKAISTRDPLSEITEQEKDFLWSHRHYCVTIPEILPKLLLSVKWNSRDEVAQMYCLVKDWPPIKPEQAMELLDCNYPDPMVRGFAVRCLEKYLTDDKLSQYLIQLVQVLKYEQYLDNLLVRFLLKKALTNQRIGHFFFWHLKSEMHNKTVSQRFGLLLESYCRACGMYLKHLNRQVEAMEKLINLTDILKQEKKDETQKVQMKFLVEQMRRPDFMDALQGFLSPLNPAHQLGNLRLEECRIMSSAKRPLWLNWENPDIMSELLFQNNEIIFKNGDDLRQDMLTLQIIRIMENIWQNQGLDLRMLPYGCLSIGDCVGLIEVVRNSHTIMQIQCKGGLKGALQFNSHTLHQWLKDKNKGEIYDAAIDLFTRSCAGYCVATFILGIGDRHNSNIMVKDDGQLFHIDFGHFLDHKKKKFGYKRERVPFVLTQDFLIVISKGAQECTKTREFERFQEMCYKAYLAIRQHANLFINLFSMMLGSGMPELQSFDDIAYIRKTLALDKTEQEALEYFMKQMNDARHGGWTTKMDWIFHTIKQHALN
Chain of H1047R PIK3CA enzyme (P27986 whole entry partner): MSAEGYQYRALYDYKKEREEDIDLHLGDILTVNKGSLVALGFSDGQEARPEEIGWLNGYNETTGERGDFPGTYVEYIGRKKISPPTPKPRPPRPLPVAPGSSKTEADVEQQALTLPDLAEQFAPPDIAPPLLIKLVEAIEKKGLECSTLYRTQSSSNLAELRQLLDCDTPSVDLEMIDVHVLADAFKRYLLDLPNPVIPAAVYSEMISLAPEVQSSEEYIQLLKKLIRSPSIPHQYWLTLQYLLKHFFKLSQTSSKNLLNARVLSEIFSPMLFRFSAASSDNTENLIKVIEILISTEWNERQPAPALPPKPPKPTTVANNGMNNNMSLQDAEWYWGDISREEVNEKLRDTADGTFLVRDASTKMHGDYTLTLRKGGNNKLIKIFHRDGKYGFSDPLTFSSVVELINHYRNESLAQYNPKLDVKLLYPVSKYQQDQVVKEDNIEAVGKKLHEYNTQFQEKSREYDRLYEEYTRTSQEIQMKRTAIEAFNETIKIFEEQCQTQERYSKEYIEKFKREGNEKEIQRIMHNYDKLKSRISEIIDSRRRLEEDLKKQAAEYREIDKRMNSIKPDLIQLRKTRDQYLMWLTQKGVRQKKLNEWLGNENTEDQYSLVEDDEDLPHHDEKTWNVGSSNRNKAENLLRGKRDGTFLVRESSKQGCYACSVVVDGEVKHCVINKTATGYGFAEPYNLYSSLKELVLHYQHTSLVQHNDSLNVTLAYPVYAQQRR

IC50, 1 to 10 µM:
CNC(=O)c1cnc(Nc2ccccc2C)c(NC(=O)[C@]23C[C@H]4C[C@H](C[C@H](C4)C2)C3)c1 [I-171], Cc1ccccc1Nc1ncc(NCC(=O)O)cc1NC(=O)c1cc(F)cc(C(F)(F)F)c1 [I-179], Cc1ccccc1Nc1ncc(NCC(N)=O)cc1NC(=O)c1cc(F)cc(C(F)(F)F)c1 [I-186], CNC(=O)c1cnc(Nc2ccccc2C)c(NC(=O)c2cc(F)cc(C3CC3)c2)c1 [I-188], CNC(=O)c1cnc(Nc2ccccc2C)c(NC(=O)c2cn(C)c3ccccc23)c1 [I-207], CC1CCc2ccccc2N1c1ncc(C(=O)NC2CS(=O)(=O)C2)cc1NC(=O)c1csc2ccccc12 (centres unmarked) [I-216], CC1CCc2ccccc2N1c1ncc(C(=O)NCc2nccs2)cc1NC(=O)c1csc2ccccc12 (centres unmarked) [I-217], Cc1ccccc1Nc1cnccc1NC(=O)c1cc(F)cc(C(F)(F)F)c1 [I-220], Cc1ccccc1Nc1cnccc1NC(=O)c1csc2ccccc12 [I-221], Cc1ccc(Nc2ncc(C(=O)NC3CS(=O)(=O)C3)cc2NC(=O)c2csc3ccccc23)cc1 [I-222], Cc1ccc(Nc2ncc(C(=O)NCc3ccn(C)n3)cc2NC(=O)c2csc3ccccc23)cc1 [I-223], Cc1ccc(Nc2ncc(C(=O)NCc3nccs3)cc2NC(=O)c2csc3ccccc23)cc1 [I-225], Cc1ccccc1Nc1ncc(C(=O)Nc2cc[nH]n2)cc1NC(=O)c1cc(F)cc(C(F)(F)F)c1 [I-230], Cc1ccccc1Nc1ncc(C(=O)Nc2ccccc2)cc1NC(=O)c1cc(F)cc(C(F)(F)F)c1 [I-231], Cc1ccc(Nc2ncc(C(=O)NCc3ccnn3C)cc2NC(=O)c2csc3ccccc23)cc1 [I-261], Cc1ccc(NC(=O)c2cnc(Nc3ccccc3C)c(NC(=O)c3cc(F)cc(C(F)(F)F)c3)c2)nc1 [I-263], Cc1cnnc(NC(=O)c2cnc(Nc3ccccc3C)c(NC(=O)c3cc(F)cc(C(F)(F)F)c3)c2)c1 [I-264], CNC(=O)c1cnc(Nc2ncccc2C)c(NC(=O)c2cc(F)cc(C(F)(F)F)c2)c1 [I-269], Cc1ccccc1Nc1ncc(N2CCN(C(=O)OC(C)(C)C)CC2)cc1NC(=O)c1cc(F)cc(C(F)(F)F)c1 [I-270], COCCn1cc(NC(=O)c2csc3ccccc23)c(N2CCOc3ccccc32)cc1=O [I-271], Cn1cc(NC(=O)c2csc3ccccc23)c(N2CCOc3ccccc32)cc1=O [I-272], Cn1cc(NC(=O)c2cc(F)cc(C(F)(F)F)c2)c(N2CCOc3ccccc32)cc1=O [I-273], Cc1ccccc1Nc1cc(=O)n(C)cc1NC(=O)c1csc2ccccc12 [I-280], CNC(=O)c1cnc(N2CCC(C)c3ccccc32)c(NC(=O)c2cc(F)cc(C(F)(F)F)c2)c1 (centres unmarked) [I-282], CNC(=O)c1cc(NC(=O)c2cc(F)cc(C(F)(F)F)c2)c(N(C)c2ccccc2C)cn1 [I-325]

IC50, 0.5 to 1 µM:
Cc1ccccc1Nc1ncc(C(=O)NCC2(O)CCCCC2)cc1NC(=O)c1csc2ccccc12 [I-189], Cc1ccccc1Nc1ncc(C(=O)Nc2cc[nH]c(=O)n2)cc1NC(=O)c1csc2ccccc12 [I-194], Cc1ccccc1Nc1ncc(C(=O)Nc2ccn(C)n2)cc1NC(=O)c1cc(F)cc(C(F)(F)F)c1 [I-235], Cc1ccccc1Nc1ncc(C(=O)Nc2ccncn2)cc1NC(=O)c1cc(F)cc(C(F)(F)F)c1 [I-262], Cc1ccccc1Nc1ncc(C(=O)Nc2cncnc2)cc1NC(=O)c1cc(F)cc(C(F)(F)F)c1 [I-265], Cc1ccccc1Nc1ncc(N2CCNCC2)cc1NC(=O)c1cc(F)cc(C(F)(F)F)c1 [I-268]

IC50, 10 to 100 µM:
CNC(=O)c1cnc(Nc2ccccc2C)c(NC(=O)Cc2cn(C)c3ccccc23)c1 [I-167], CNC(=O)c1cnc(Nc2ccccc2C)c(NC(=O)[C@@H](OC)c2ccccc2)c1 [I-169], CNC(=O)c1cnc(Nc2ccccc2C)c(NC(=O)CC2CCc3ccccc32)c1 (centres unmarked) [I-170], Cc1ccccc1Nc1ncc(-c2cnn(C)c2)cc1NS(=O)(=O)c1ccccc1 [I-172], CNC(=O)c1cnc(Nc2cccnc2C)c(NC(=O)c2cc(F)cc(C(F)(F)F)c2)c1 [I-173], CNC(=O)c1cnc(Nc2ccc(OC)cc2)c(NC(=O)c2cc(F)cc(C(F)(F)F)c2)c1 [I-174], CNC(=O)c1cnc(Nc2ccccc2C)c(NC(=O)c2n[nH]c3ccccc23)c1 [I-175], CNC(=O)c1cnc(Nc2ccccc2C)c(NC(=O)c2cnc3ccccc3c2)c1 [I-176], CNC(=O)c1cnc(Nc2ccccc2C)c(NC(=O)c2cc(C(F)(F)F)cc(C(F)(F)F)c2)c1 [I-177], CNC(=O)c1cnc(Nc2ccccc2C)c(NC(=O)c2ccc3ccccc3c2)c1 [I-182], CNC(=O)c1cnc(Nc2ccccc2C)c(NC(=O)c2ccc3ncccc3c2)c1 [I-183], CNC(=O)c1cnc(Nc2ccccc2C)c(NC(=O)c2cc3ccccc3cn2)c1 [I-184], CNC(=O)c1cnc(NCc2nccn2C)c(NC(=O)c2cc(F)cc(C(F)(F)F)c2)c1 [I-185], CNC(=O)c1cnc(Nc2ccccc2C)c(NC(=O)c2nc(SC)ncc2Cl)c1 [I-187], CNC(=O)c1cnc(Nc2ccnc(C)c2)c(NC(=O)c2cc(F)cc(C(F)(F)F)c2)c1 [I-200], CNC(=O)c1cnc(Nc2ccc(C)nc2)c(NC(=O)c2cc(F)cc(C(F)(F)F)c2)c1 [I-201], CNC(=O)c1cnc(N2CC3CCCN3CC2C)c(NC(=O)c2cc(F)cc(C(F)(F)F)c2)c1 (centres unmarked) [I-202], CNC(=O)c1cnc(N)c(NC(=O)c2cc(F)cc(C(F)(F)F)c2)c1 [I-204], CNC(=O)c1cnc(Nc2ccccc2C)c(NC(=O)c2ccc3c(n2)CCCN3)c1 [I-205], COC(=O)c1cnc(Nc2ccc(C)cc2)c(NC(=O)c2csc3ccccc23)c1 [I-206], CNC(=O)c1cnc(Nc2ccccc2C)c(NC(=O)c2csc(Cl)c2Cl)c1 [I-213], CNC(=O)c1cnc(Nc2ccccc2CN)c(NC(=O)c2csc3ccccc23)c1 [I-214], CNC(=O)c1cnc(N2c3ccccc3CCC2C)c(NC(=O)c2csc3ccccc23)c1 (centres unmarked) [I-218], Cc1ccc(Nc2ncc(C(=O)NCc3cnn(C)c3)cc2NC(=O)c2csc3ccccc23)cc1 [I-224], CNC(=O)c1cnc(Nc2ccc(C)cc2)c(NC(=O)c2csc3ccccc23)c1 [I-226], CNC(=O)c1cnc(Nc2ccccc2C)c(NC(=O)c2nccc3ccccc23)c1 [I-233], CNC(=O)c1cnc(Nc2ccccc2C)c(NC(=O)c2ccc(F)c3ccccc23)c1 [I-236], CNC(=O)c1cnc(Nc2ccccc2C)c(NC(=O)c2cccc3cnccc23)c1 [I-237], CNC(=O)c1cnc(Nc2ccccc2C)c(NC(=O)c2cccc3ccncc23)c1 [I-238], CNC(=O)c1cnc(Nc2ccccc2C)c(NC(=O)c2csc(C(F)(F)F)n2)c1 [I-241], CNC(=O)c1cnc(Nc2ccccc2C)c(NC(=O)c2csc(C)n2)c1 [I-242], CNC(=O)c1cnc(Nc2ccccc2C)c(NC(=O)c2csc(N)n2)c1 [I-243], CNC(=O)c1cnc(N2CCNc3ccccc32)c(NC(=O)c2csc3ccccc23)c1 [I-244], CNC(=O)c1cnc(Nc2ccccc2C)c(NC(=O)Cc2cccnc2)c1 [I-250], CNC(=O)c1cnc(Nc2ccccc2C)c(NC(=O)C2CCOc3ccccc32)c1 (centres unmarked) [I-259], CNC(=O)c1cnc(Nc2ccccc2C)c(NC(=O)C2CCSc3ccccc32)c1 (centres unmarked) [I-260], O=C(NC1CS(=O)(=O)C1)c1cnc(N2CCCOc3ccccc32)c(NC(=O)c2csc3ccccc23)c1 [I-277], CNC(=O)c1cnc(N2CCNCc3ccccc32)c(NC(=O)c2cc(F)cc(C(F)(F)F)c2)c1 [I-281], CNC(=O)c1cnc(Nc2ccccc2C)c(NC(=O)c2csc3ncccc23)c1 [I-283], CCn1cccc(C(=O)Nc2cc(C(=O)NC)cnc2Nc2ccccc2C)c1=O [I-284], CNC(=O)c1cnc(Nc2ccccc2C)c(NC(=O)Cc2ccccc2S(C)(=O)=O)c1 [I-306], CNC(=O)c1cnc(Nc2ccccc2C)c(NC(=O)c2cc(F)cc(-c3ccccc3)c2)c1 [I-318], CNC(=O)c1cnc(Nc2ccccc2C)c(NC(=O)c2cc(F)cc3cccnc23)c1 [I-319], CNC(=O)c1cnc(Nc2ccccc2C)c(NC(=O)c2cc(F)cc3ccccc23)c1 [I-320], O=C(Nc1cccc(=O)n1Cc1ccccc1)c1csc2ccccc12 [I-321], CNC(=O)c1cnc(Nc2ccccc2C)c(NC(=O)c2cc(F)c3ccccc3c2)c1 [I-322], CNC(=O)c1cnc(NCc2cncn2C)c(NC(=O)c2cc(F)cc(C(F)(F)F)c2)c1 [I-323], Cc1ccccc1NC(=O)c1cc(NC(=O)c2cc(F)cc(C(F)(F)F)c2)c(Nc2ccccc2C)cn1 [I-324], CNC(=O)c1cnc(Nc2ccccc2C)c(Nc2cc(F)c3cn[nH]c3c2)c1 [I-327]
